# Reference: ChEMBL document CHEMBL3861969, “Acredinone C and the Effect of Acredinones on Osteoclastogenic and Osteoblastogenic Activity” (J Nat Prod, 2016)
# Calls of active or inactive are those of the source. No cut-off for these calls is given here.
# What was measured:
# [1] = target: Mitogen-activated protein kinase 3 (Mus musculus) (UniProt Q63844); test: Inhibition of RANKL-induced ERK1 phosphorylation in mouse BMDM cells assessed as ratio of phosphorylated ERK1 to ERK1 at 10 uM preincubated for 5 mins followed RANKL/M-CSF addition for 5 mins by Western blot analysis (reference value: 2.9); type: cell-based
# Mus musculus [2] = organism: Mus musculus; test: Cytotoxicity against mouse C2C12 cells assessed as reduction cell viability after 3 days in presence of BMP2 by CCK-8 assay; type: toxicity, cell-based; conditions: c2c12, 72 h
# C2C12 [3] = test: Increase in BMP2-induced BMP6 mRNA expression in mouse C2C12 cells at 10 uM measured on day 3 by real-time PCR analysis; type: functional, cell-based
# BMDM [4] = test: Inhibition of RANKL-induced TRAP mRNA expression in mouse BMDM cells at 10 uM preincubated with cells followed by RANKL addition measured after 2 days by real-time PCR analysis; type: functional, cell-based
# BMDM [5] = test: Inhibition of RANKL-induced mouse BMDM cell differentiation assessed as TRAP-positive MNCs at 0.1 to 30 uM preincubated for 5 mins followed by RANKL/M-CSF addition measured after 4 days by TRAP-staining based assay; type: functional
# SMAD1/5/9 (Mus musculus) [6] = target: T1, SMAD1/5/9 (Mus musculus) (UniProt P70340+P97454+Q9JIW5); test: Activation of Smad1/5/8 in mouse C2C12 cells assessed as increase in BMP2-stimulated Runx2 mRNA expression at 10 uM preincubated with cells followed by BMP2 addition after 3 days by real-time PCR analysis; type: cell-based
# BMDM [7] = test: Inhibition of RANKL-induced OSCAR mRNA expression in mouse BMDM cells at 10 uM preincubated with cells followed by RANKL addition measured after 2 days by real-time PCR analysis; type: functional, cell-based
# SMAD1/5/9 (Mus musculus) [8] = target: T1, SMAD1/5/9 (Mus musculus); test: Increase in BMP2-induced Smad1/5/8 nuclear translocation in mouse C2C12 cells assessed as ratio of Smad1/5/8 to actin in cytosol fraction at 10 uM preincubated with cells followed by BMP2 addition for 4 hrs by Western blot analysis (reference value: 0.4); type: cell-based
# C2C12 [9] = test: Increase in BMP2-induced BMP2 protein expression in mouse C2C12 cells assessed as ration of BMP2 to actin at 10 uM measured on day 3 by Western blot analysis (reference value: 1.4); type: functional
# [10] = target: T2, NF-kappa-B inhibitor alpha (Mus musculus) (UniProt Q9Z1E3); test: Inhibition of RANKL-induced IkBalpha phosphorylation in mouse BMDM cells at 10 uM preincubated for 5 mins followed RANKL/M-CSF addition for 5 mins by Western blot analysis; type: cell-based
# T2 sequence (whole entry): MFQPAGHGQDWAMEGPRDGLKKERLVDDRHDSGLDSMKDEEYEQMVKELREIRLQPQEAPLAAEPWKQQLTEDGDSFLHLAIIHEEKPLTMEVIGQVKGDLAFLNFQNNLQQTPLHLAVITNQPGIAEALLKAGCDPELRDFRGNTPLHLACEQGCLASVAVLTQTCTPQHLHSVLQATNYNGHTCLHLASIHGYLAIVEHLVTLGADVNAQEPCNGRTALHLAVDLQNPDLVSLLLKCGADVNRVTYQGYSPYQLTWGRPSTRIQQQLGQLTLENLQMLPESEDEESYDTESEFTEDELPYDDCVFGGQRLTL
# BMDM [11] = test: Inhibition of RANKL-induced DC-STAMP mRNA expression in mouse BMDM cells at 10 uM preincubated with cells followed by RANKL addition measured after 2 days by real-time PCR analysis; type: functional, cell-based
# [12] = Inhibition of RANKL-induced c-Fos expression in mouse BMDM cells assessed as ratio of c-Fos to actin at 10 uM preincubated with cells followed RANKL/M-CSF addition measured after 1 day by Western blot analysis (reference value: 6.4); type: functional
# [13] = target: Mitogen-activated protein kinase 9 (Mus musculus) (UniProt Q9WTU6); test: Inhibition of RANKL-induced JNK2 phosphorylation in mouse BMDM cells assessed as ratio of phosphorylated JNK2 to JNK2 at 10 uM preincubated for 5 mins followed RANKL/M-CSF addition for 5 mins by Western blot analysis (reference value: 5.2); type: cell-based
# Mus musculus [14] = organism: Mus musculus; test: Cytotoxicity against mouse BMDM cells assessed as reduction in cell viability up to 10 uM after 3 days in presence of M-CSF by CCK-8 assay; type: toxicity, cell-based; conditions: 72 h
# C2C12 [15] = test: Induction of osteoblast differentiation in mouse C2C12 cells assessed as increase in BMP2-induced ALP activity preincubated with cells after 3 days using p-nitrophenyl phosphate as substrate; type: functional, cell-based
# C2C12 [16] = test: Increase in BMP2-induced BMP4 mRNA expression in mouse C2C12 cells at 10 uM measured on day 3 by real-time PCR analysis; type: functional, cell-based
# C2C12 [17] = test: Increase in BMP2-induced BMP7 mRNA expression in mouse C2C12 cells at 10 uM measured on day 3 by real-time PCR analysis; type: functional, cell-based
# Mus musculus [18] = test: Osteogenic activity in ICR mouse calvarial bone implanted with collagen sponges containing 10 mM compound incubated for 2 weeks assessed as increase in woven bone formation near periosteum of the calvarial bone by hematoxylin and eosin staining based assay relative to control; type: functional
# [19] = Inhibition of RANKL-induced NFATc1 expression in mouse BMDM cells assessed as ratio of NFATc1 to actin at 10 uM preincubated with cells followed RANKL/M-CSF addition measured after 1day by Western blot analysis (reference value: 281); type: functional
# C2C12 [20] = test: Increase in BMP2-induced BMP2 mRNA expression in mouse C2C12 cells at 10 uM measured on day 3 by real-time PCR analysis; type: functional, cell-based
# [21] = target: MAP kinase p38 (Mus musculus) (UniProt P47811+O08911+Q9WUI1+Q9Z1B7); test: Inhibition of RANKL-induced p38 phosphorylation in mouse BMDM cells assessed as ratio of phosphorylated p38 to p38 at 10 uM preincubated for 5 mins followed RANKL/M-CSF addition for 5 mins by Western blot analysis (reference value: 24.7); type: cell-based
# SMAD1/5/9 (Mus musculus) [22] = target: T1, SMAD1/5/9 (Mus musculus); test: Increase in BMP2-induced Smad1/5/8 phosphorylation in mouse C2C12 cells assessed as ratio of phosphorylated Smad1/5/8 to Smad1/5/8 in nuclear fraction at 10 uM preincubated with cells followed by BMP2 addition for 4 hrs by Western blot analysis (reference value: 1.2); type: cell-based
# BMDM [23] = test: Inhibition of RANKL-induced cathespin K mRNA expression in mouse BMDM cells at 10 uM preincubated with cells followed by RANKL addition measured after 2 days by real-time PCR analysis; type: functional, cell-based
# SMAD1/5/9 (Mus musculus) [24] = target: T1, SMAD1/5/9 (Mus musculus); test: Activation of Smad1/5/8 in mouse C2C12 cells assessed as increase in BMP2-stimulated […] mRNA expression at 10 uM preincubated with cells followed by BMP2 addition after 3 days by real-time PCR analysis; type: cell-based
# C2C12 [25] = test: Increase in BMP2-induced BMP9 mRNA expression in mouse C2C12 cells at 10 uM measured on day 3 by real-time PCR analysis; type: functional, cell-based
# BMDM [26] = test: Inhibition of RANKL-induced mouse BMDM cell differentiation assessed as TRAP-positive MNCs at 0.1 to 10 uM preincubated for 5 mins followed by RANKL/M-CSF addition measured after 4 days by TRAP-staining based assay; type: functional
# Sequence of Mitogen-activated protein kinase 9 (Mus musculus) (Q9WTU6 whole entry): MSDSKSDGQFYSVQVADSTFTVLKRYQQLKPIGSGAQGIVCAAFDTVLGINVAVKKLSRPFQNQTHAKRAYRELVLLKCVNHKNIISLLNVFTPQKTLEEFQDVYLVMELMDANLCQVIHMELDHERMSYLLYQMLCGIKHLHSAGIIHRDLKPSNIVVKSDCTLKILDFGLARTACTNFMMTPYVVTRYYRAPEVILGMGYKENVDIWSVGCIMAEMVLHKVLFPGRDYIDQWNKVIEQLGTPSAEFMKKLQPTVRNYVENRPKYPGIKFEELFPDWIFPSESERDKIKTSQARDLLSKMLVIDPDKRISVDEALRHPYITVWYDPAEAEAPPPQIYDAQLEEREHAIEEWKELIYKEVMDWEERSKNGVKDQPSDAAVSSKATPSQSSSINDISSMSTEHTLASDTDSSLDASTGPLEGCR
# Sequence of Mitogen-activated protein kinase 3 (Mus musculus) (Q63844 whole entry): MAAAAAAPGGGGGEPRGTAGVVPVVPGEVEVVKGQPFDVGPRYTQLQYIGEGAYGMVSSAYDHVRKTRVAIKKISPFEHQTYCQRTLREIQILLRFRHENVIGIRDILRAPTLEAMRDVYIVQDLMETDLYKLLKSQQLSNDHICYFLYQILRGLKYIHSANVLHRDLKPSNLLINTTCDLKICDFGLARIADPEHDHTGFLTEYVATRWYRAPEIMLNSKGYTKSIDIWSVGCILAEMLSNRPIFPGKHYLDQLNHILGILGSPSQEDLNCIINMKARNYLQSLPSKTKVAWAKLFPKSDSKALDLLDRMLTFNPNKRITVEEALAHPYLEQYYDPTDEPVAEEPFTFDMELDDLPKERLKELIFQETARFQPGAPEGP
structure (smiles),measurement,setting,value
COc1cccc(OC)c1C(=O)c1c(O)cc(C)c(OC)c1C1=C(c2c(OC)cccc2OC)c2c(O)cc(C)c(OC)c2C1=O,fold change (FC),[1],3.2
same,Activity,Mus musculus [2],Non-Toxic
same,Activity,C2C12 [3],Active
same,inhibition,BMDM [4],Active
same,inhibition,BMDM [5],Active
same,Activity,SMAD1/5/9 (Mus musculus) [6],Active
same,inhibition,BMDM [7],Active
same,fold change (FC),SMAD1/5/9 (Mus musculus) [8],0.1
same,fold change (FC),C2C12 [9],3.8
same,inhibition,[10],Active
same,inhibition,BMDM [11],Active
same,fold change (FC),[12],5.5
same,fold change (FC),[13],4.3
same,Activity,Mus musculus [14],Non-Toxic
same,Activity,C2C12 [15],Dose-dependent effect
same,Activity,C2C12 [16],Active
same,Activity,C2C12 [17],Active
same,Activity,Mus musculus [18],Active
same,fold change (FC),[19],175
same,Activity,C2C12 [20],Active
same,fold change (FC),[21],13.2
same,fold change (FC),SMAD1/5/9 (Mus musculus) [22],1.7
same,inhibition,BMDM [23],Active
same,Activity,SMAD1/5/9 (Mus musculus) [24],Active
same,Activity,C2C12 [25],Active
same,inhibition,BMDM [26],Active
